# From the supplement of paper PMC10307832
# How the values were obtained:
# Experiment in all cases: relative viability (nuclei count vs DMSO), 5 days (fraction); higher = more cells survive
# [1] = system: LC-2-ad
# Method in brief: (§1)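 Five library-drug doses in √10 steps were combined with a fixed anchor-drug dose, or a single drug was given alone, by pin tool to lung cancer cell lines in 1536-well plates the day after seeding. Nuclei were stained and counted after 5 days. Relative viability is the nuclei count in treated wells over that in vehicle wells, taken as the median of duplicate plates.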
# [2] = system: NCI-H596
# Method in brief: as §1
# [3] = system: NCI-H2228
# Method in brief: as §1
# [4] = system: SW 1573
# Method in brief: as §1
# [5] = system: LK-2
# Method in brief: as §1
# [6] = system: NCI-H1650
# Method in brief: as §1
# [7] = system: 201T
# Method in brief: as §1
# [8] = system: NCI-H23
# Method in brief: as §1
# [9] = system: PC-14
# Method in brief: as §1
# [10] = system: LU99A
# Method in brief: as §1
# [11] = system: NCI-H460
# Method in brief: as §1
# [12] = system: NCI-H2347
# Method in brief: as §1
# [13] = system: H3255
# Method in brief: as §1
# [14] = system: A-427
# Method in brief: as §1
# [15] = system: LCLC-97TM1
# Method in brief: as §1
# [16] = system: HCC-44
# Method in brief: as §1
# [17] = system: LCLC-103H
# Method in brief: as §1
# [18] = system: NCI-H1563
# Method in brief: as §1
# [19] = system: NCI-H727
# Method in brief: as §1
# [20] = system: COR-L23
# Method in brief: as §1
smiles,measurement,setting,value
Cc1sc2c(c1C)C(c1ccc(Cl)cc1)=N[C@@H](CC(=O)OC(C)(C)C)c1nnc(C)n1-2 [JQ1] + C[C@@H](Oc1cc(-c2cnn(C3CCNCC3)c2)cnc1N)c1c(Cl)ccc(F)c1Cl [Crizotinib] (partner 1 µM),relative viability,[1]; first compound 0.04 µM,0.44
same,relative viability,[1]; first compound 0.1265 µM,0.348
same,relative viability,[1]; first compound 0.4 µM,0.308
same,relative viability,[1]; first compound 1.265 µM,0.277
same,relative viability,[1]; first compound 4 µM,0.258
same,relative viability,[2]; first compound 0.04 µM,0.977
same,relative viability,[2]; first compound 0.1265 µM,0.85
same,relative viability,[2]; first compound 0.4 µM,0.472
same,relative viability,[2]; first compound 1.265 µM,0.498
same,relative viability,[2]; first compound 4 µM,0.432
same,relative viability,[3]; first compound 0.04 µM,0.455
same,relative viability,[3]; first compound 0.1265 µM,0.417
same,relative viability,[3]; first compound 0.4 µM,0.38
same,relative viability,[3]; first compound 1.265 µM,0.306
same,relative viability,[3]; first compound 4 µM,0.317
same,relative viability,[4]; first compound 0.04 µM,0.633
same,relative viability,[4]; first compound 0.1265 µM,0.741
same,relative viability,[4]; first compound 0.4 µM,0.678
same,relative viability,[4]; first compound 1.265 µM,0.48
same,relative viability,[4]; first compound 4 µM,0.385
same,relative viability,[5]; first compound 0.04 µM,0.208
same,relative viability,[5]; first compound 0.1265 µM,0.224
same,relative viability,[5]; first compound 0.4 µM,0.212
same,relative viability,[5]; first compound 1.265 µM,0.232
same,relative viability,[5]; first compound 4 µM,0.198
same,relative viability,[6]; first compound 0.04 µM,0.948
same,relative viability,[6]; first compound 0.1265 µM,0.609
same,relative viability,[6]; first compound 0.4 µM,0.735
same,relative viability,[6]; first compound 1.265 µM,0.126
same,relative viability,[6]; first compound 4 µM,0.141
same,relative viability,[7]; first compound 0.04 µM,1.05
same,relative viability,[7]; first compound 0.1265 µM,0.882
same,relative viability,[7]; first compound 0.4 µM,0.93
same,relative viability,[7]; first compound 1.265 µM,0.73
same,relative viability,[7]; first compound 4 µM,0.602
same,relative viability,[8]; first compound 0.04 µM,0.441
same,relative viability,[8]; first compound 0.1265 µM,0.61
same,relative viability,[8]; first compound 0.4 µM,0.304
same,relative viability,[8]; first compound 1.265 µM,0.163
same,relative viability,[8]; first compound 4 µM,0.154
same,relative viability,[9]; first compound 0.04 µM,0.907
same,relative viability,[9]; first compound 0.1265 µM,0.781
same,relative viability,[9]; first compound 0.4 µM,0.776
same,relative viability,[9]; first compound 1.265 µM,0.611
same,relative viability,[9]; first compound 4 µM,0.426
same,relative viability,[10]; first compound 0.04 µM,0.554
same,relative viability,[10]; first compound 0.1265 µM,0.533
same,relative viability,[10]; first compound 0.4 µM,0.278
same,relative viability,[10]; first compound 1.265 µM,0.231
same,relative viability,[10]; first compound 4 µM,0.198
same,relative viability,[11]; first compound 0.04 µM,0.806
same,relative viability,[11]; first compound 0.1265 µM,0.597
same,relative viability,[11]; first compound 0.4 µM,0.532
same,relative viability,[11]; first compound 1.265 µM,0.0339
same,relative viability,[11]; first compound 4 µM,0.0299
same,relative viability,[12]; first compound 0.04 µM,0.673
same,relative viability,[12]; first compound 0.1265 µM,0.549
same,relative viability,[12]; first compound 0.4 µM,0.646
same,relative viability,[12]; first compound 1.265 µM,0.555
same,relative viability,[12]; first compound 4 µM,0.431
same,relative viability,[13]; first compound 0.04 µM,0.828
same,relative viability,[13]; first compound 0.1265 µM,0.715
same,relative viability,[13]; first compound 0.4 µM,0.741
same,relative viability,[13]; first compound 1.265 µM,0.316
same,relative viability,[13]; first compound 4 µM,0.221
same,relative viability,[14]; first compound 0.04 µM,0.997
same,relative viability,[14]; first compound 0.1265 µM,0.947
same,relative viability,[14]; first compound 0.4 µM,0.658
same,relative viability,[14]; first compound 1.265 µM,0.691
same,relative viability,[14]; first compound 4 µM,0.516
same,relative viability,[15]; first compound 0.1265 µM,0.285
same,relative viability,[15]; first compound 0.4 µM,0.19
same,relative viability,[15]; first compound 1.265 µM,0.118
same,relative viability,[15]; first compound 4 µM,0.117
same,relative viability,[16]; first compound 0.04 µM,0.822
same,relative viability,[16]; first compound 0.1265 µM,0.623
same,relative viability,[16]; first compound 0.4 µM,0.397
same,relative viability,[16]; first compound 1.265 µM,0.277
same,relative viability,[16]; first compound 4 µM,0.243
same,relative viability,[17]; first compound 0.04 µM,1
same,relative viability,[17]; first compound 0.1265 µM,0.94
same,relative viability,[17]; first compound 0.4 µM,0.847
same,relative viability,[17]; first compound 1.265 µM,0.612
same,relative viability,[17]; first compound 4 µM,0.506
same,relative viability,[18]; first compound 0.04 µM,0.839
same,relative viability,[18]; first compound 0.1265 µM,0.764
same,relative viability,[18]; first compound 0.4 µM,0.881
same,relative viability,[18]; first compound 1.265 µM,0.631
same,relative viability,[18]; first compound 4 µM,0.615
same,relative viability,[19]; first compound 0.04 µM,0.823
same,relative viability,[19]; first compound 0.1265 µM,1.02
same,relative viability,[19]; first compound 0.4 µM,0.631
same,relative viability,[19]; first compound 1.265 µM,0.338
same,relative viability,[19]; first compound 4 µM,0.362
same,relative viability,[20]; first compound 0.04 µM,0.608
same,relative viability,[20]; first compound 0.1265 µM,0.381
same,relative viability,[20]; first compound 0.4 µM,0.46
same,relative viability,[20]; first compound 1.265 µM,0.248
same,relative viability,[20]; first compound 4 µM,0.12
